Among the test systems are KM12; COLO 205; TK-10; UO-31; SF-268; HCC 2998; SF-539; OVCAR-5; ACHN; HCT-116; SN12C; LOX IMVI; SW-620; RXF 393; M14; SR; HOP-62; SK-OV-3; MOLT-4; HOP-92.
Holding throughout (assay): NCI-60 cell line screen, 48 h

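Tested at 5 concentrations; 48 h exposure; 96-well plates; endpoints linearly interpolated, else capped at highest concentration. GI50 is the concentration that inhibits growth by half.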 Activity calls are given as the source filed them. Rule as the data show it: active = GI50 up to about 1.1 µM and inactive = higher.

Regarding `BrP(NC1CCCCCC1)(c1ccccc1)(c1ccccc1)c1ccccc1`, the GI50 is 0.873 µM (active) with KM12; 1.78 µM (inactive) in the assay on COLO 205; 6.58 µM (inactive) in the assay on TK-10; 4.25 µM (inactive) in the assay on UO-31; 2.88 µM (inactive) in the assay with SF-268; 2.04 µM (inactive) with HCC 2998. Besides, the GI50 in the assay on SF-539 was 14.1 µM (inactive); with OVCAR-5 it was 18 µM (inactive); in the assay on ACHN it was 3.27 µM (inactive); in the assay on HCT-116 it was 4.74 µM (inactive); in the assay with SN12C, 5.06 µM (inactive); in the assay with LOX IMVI, 2.36 µM (inactive). For the same compound, the GI50 with SW-620 was 3.09 µM (inactive); in the assay on RXF 393 it was 2.2 µM (inactive); with M14 it was 12.4 µM (inactive); with SR, 3.88 µM (inactive); in the assay on HOP-62, 8.79 µM (inactive).

As to `CCN(CCO)C(=O)C1(c2ccccc2)CCCCC1`, the GI50 in the assay with KM12, in the assay on COLO 205, with TK-10, in the assay on UO-31, in the assay on SF-268 and in the assay with HCC 2998 was > 10 µM (inactive) each time. In addition, the GI50 with SK-OV-3, with SF-539, with OVCAR-5, with ACHN, in the assay on HCT-116 and in the assay with SN12C was > 10 µM (inactive) each time. The GI50 in the assay with LOX IMVI, in the assay with SW-620, in the assay on RXF 393, with M14, with SR and in the assay on HOP-62 was > 10 µM (inactive) throughout. The GI50 in the assay on MOLT-4 is > 10 µM (inactive).

Regarding `Cc1ccc(S(=O)(=O)NC(=O)NC(CCCCNC(=N)N)C(=O)O)cc1` (stereo not drawn), the GI50 in the assay with KM12, with COLO 205, in the assay on TK-10, with UO-31, with SF-268 and with SK-OV-3 was > 100 µM (inactive) in each case. Besides, the GI50 in the assay with SF-539, in the assay on ACHN, in the assay on HCT-116, with SN12C, in the assay with LOX IMVI and with SW-620 was > 100 µM (inactive) throughout. Besides, the GI50 with RXF 393, in the assay with HOP-92, in the assay on M14, in the assay on SR, with HOP-62 and in the assay with MOLT-4 was > 100 µM (inactive) each time.

In the case of `O=C1NC2(CCCCC2)C2CCCCC(O)C12` (stereo not drawn), the GI50 in the assay on KM12, in the assay on COLO 205, with TK-10, in the assay on UO-31, in the assay with SF-268 and with HCC 2998 was > 100 µM (inactive) each time. For the same compound, the GI50 with SF-539, in the assay on OVCAR-5, with ACHN, in the assay with HCT-116, in the assay on SN12C and with SW-620 was > 100 µM (inactive) each time. Also, the GI50 in the assay with RXF 393, in the assay with SR, in the assay on HOP-62 and with MOLT-4 was > 100 µM (inactive) throughout.

Turning to `CN1CN(c2ccccc2)C2(CCN(CCCC(=O)c3cccs3)CC2)C1=O`, the GI50 is 75.7 µM (inactive) in the assay on KM12; 17.3 µM (inactive) in the assay on COLO 205; 27.7 µM (inactive) in the assay on TK-10; 33 µM (inactive) with UO-31; 74.8 µM (inactive) in the assay on SF-268; 19.5 µM (inactive) in the assay on HCC 2998. For the same compound, the GI50 with SK-OV-3 is 38.4 µM (inactive); in the assay with SF-539, 23.8 µM (inactive); in the assay on OVCAR-5 it was 35.9 µM (inactive); in the assay on ACHN, 40.2 µM (inactive); with HCT-116, 30.1 µM (inactive); in the assay with SN12C, 48.4 µM (inactive). The GI50 was 47.1 µM (inactive) in the assay on LOX IMVI; 42.2 µM (inactive) in the assay with SW-620; > 100 µM (inactive) in the assay on RXF 393; 95.5 µM (inactive) in the assay with M14; 53.5 µM (inactive) with SR; 19.3 µM (inactive) in the assay on HOP-62. In addition, in the assay with MOLT-4, the GI50 is 32.8 µM (inactive).

In the case of `O=C1NC2OCC(O)C(O1)C2O` (stereo not drawn), the GI50 with KM12, in the assay with COLO 205, with TK-10, in the assay with UO-31, in the assay with SF-268 and in the assay on SK-OV-3 was > 100 µM (inactive) in each case. Also, the GI50 in the assay on SF-539, in the assay on OVCAR-5, in the assay on ACHN, in the assay with SN12C, with LOX IMVI and in the assay with SW-620 was > 100 µM (inactive) each time. Further, the GI50 in the assay with RXF 393, with HOP-92, with M14, in the assay on SR, in the assay with HOP-62 and in the assay on MOLT-4 was > 100 µM (inactive) throughout.

Consider `COc1cc(C)cc(OC)c1/C=C/C(=O)O`, for which the GI50 in the assay with KM12, in the assay on TK-10, in the assay with UO-31, in the assay with SF-268, with HCC 2998 and with OVCAR-5 was > 100 µM (inactive) each time. Moreover, the GI50 with ACHN, in the assay with HCT-116, in the assay with SN12C, in the assay on LOX IMVI, with SW-620 and in the assay on RXF 393 was > 100 µM (inactive) throughout. In addition, the GI50 in the assay on HOP-92, with M14, in the assay with SR, in the assay with HOP-62 and in the assay on MOLT-4 was > 100 µM (inactive) in each case.

Take `CCC1=CCN(c2ccc(C)cc2)OC1c1ccc(OC)cc1` (stereo not drawn): the GI50 with KM12 is > 100 µM (inactive); with COLO 205, > 100 µM (inactive); in the assay with TK-10 it was > 100 µM (inactive); in the assay on UO-31 it was 90.6 µM (inactive); in the assay with SF-268 it was > 100 µM (inactive); in the assay with HCC 2998, 70.5 µM (inactive). Besides, the GI50 in the assay on SK-OV-3 is > 100 µM (inactive); in the assay with SF-539, > 100 µM (inactive); with OVCAR-5, > 100 µM (inactive); with ACHN, > 100 µM (inactive); with HCT-116, 59.6 µM (inactive); in the assay with SN12C, > 100 µM (inactive). For the same compound, the GI50 in the assay on LOX IMVI is > 100 µM (inactive); with SW-620, > 100 µM (inactive); with RXF 393, 69.7 µM (inactive); with M14 it was 52.6 µM (inactive); in the assay with SR, 47.4 µM (inactive); in the assay on HOP-62, > 100 µM (inactive). Further, the GI50 with MOLT-4 was > 100 µM (inactive).

`O=CNCNCCO`: the GI50 in the assay with TK-10, in the assay with UO-31, in the assay with SF-268, with HCC 2998, with SK-OV-3 and with OVCAR-5 was > 100 µM (inactive) each time. For the same compound, the GI50 is > 100 µM (inactive) in the assay with ACHN; > 100 µM (inactive) in the assay with HCT-116; 46 µM (inactive) with SW-620; > 100 µM (inactive) in the assay on RXF 393; > 100 µM (inactive) in the assay with HOP-92; > 100 µM (inactive) in the assay on M14. In addition, the GI50 in the assay with SR, in the assay with HOP-62 and in the assay on MOLT-4 was > 100 µM (inactive) throughout.

On to `COc1ccc(-c2csc3c2[N+]2(C)C=CC=C2C3N2CCCC2)cc1` (stereo not drawn), for which the GI50 was 15.3 µM (inactive) in the assay with KM12; 13.6 µM (inactive) in the assay with COLO 205; 48.9 µM (inactive) in the assay on TK-10; 57 µM (inactive) in the assay with UO-31; 22 µM (inactive) in the assay on SF-268; 49.1 µM (inactive) in the assay on SK-OV-3. Also, the GI50 with SF-539 is 17.7 µM (inactive); in the assay on OVCAR-5 it was 39 µM (inactive); in the assay on ACHN it was 44.8 µM (inactive); in the assay on HCT-116, 33 µM (inactive); in the assay with LOX IMVI it was 35 µM (inactive); in the assay with SW-620 it was 24.4 µM (inactive). The GI50 in the assay with RXF 393 was 21.3 µM (inactive); with HOP-92, 18.7 µM (inactive); in the assay with M14, 29.8 µM (inactive); in the assay with SR it was 5.28 µM (inactive); in the assay on HOP-62, 27.2 µM (inactive); in the assay on MOLT-4, 27.5 µM (inactive).

Consider `CC(C(=O)NCCNC(=O)CCC(=O)N(C)O)C(=O)NCCNC(=O)CCC(=O)N(C)O`, for which the GI50 with KM12, with COLO 205, with TK-10, with UO-31, in the assay on SF-268 and in the assay on HCC 2998 was > 100 µM (inactive) in each case. The GI50 in the assay on SK-OV-3, in the assay with OVCAR-5, in the assay with ACHN, in the assay with LOX IMVI, in the assay with SW-620 and in the assay on RXF 393 was > 100 µM (inactive) each time. The GI50 in the assay on HOP-92, with M14, in the assay with SR, with HOP-62 and in the assay with MOLT-4 was > 100 µM (inactive) throughout.

Source of the values: ChEMBL document CHEMBL1201862, “PubChem BioAssay data set” (2004).
